Measurements published in PubChem BioAssay AID192 (DTP/NCI, 2004).
“And” between values parts separate entries of the source, which are not always exact repeats. Equal values may be shown once. Toxic doses and inconclusive results are not listed. Rule for the calls: active = survival T/C of 150% or more; inactive = T/C below 125% in these data.

System: BDF1 mice, B16 melanoma ip, median survival T/C
Assay: NCI In Vivo Anticancer Drug Screen. Data for tumor model B16 Melanoma (intraperitoneal) in B6D2F1 (BDF1) mice
Conditions: endpoint: median survival time, higher = longer survival
Description: The antitumor activity of compounds was measured in mice bearing transplantable tumors. Survival or tumor size were measured and the results are expressed as the measurement made in the treated group (T) divided by the measurement made in the vehicle treated control group (C). The tumor model used in this assay is B16 Melanoma (intraperitoneal) in B6D2F1 (BDF1) mice

[1] = dose: 100.0 mg/kg/injection, schedule: Q01DX009 (ip), vehicle: Klucel (hydroxypropylcellulose) (HPC)
[2] = dose: 200.0 mg/kg/injection, schedule: Q01DX009 (ip), vehicle: Klucel (hydroxypropylcellulose) (HPC)
[3] = dose: 6.25 mg/kg/injection, schedule: Q01DX009 (ip), vehicle: Klucel (hydroxypropylcellulose) (HPC)
[4] = dose: 12.5 mg/kg/injection, schedule: Q01DX009 (ip), vehicle: Klucel (hydroxypropylcellulose) (HPC)
[5] = dose: 25.0 mg/kg/injection, schedule: Q01DX009 (ip), vehicle: Klucel (hydroxypropylcellulose) (HPC)
[6] = dose: 50.0 mg/kg/injection, schedule: Q01DX009 (ip), vehicle: saline with Tween-80
[7] = dose: 100.0 mg/kg/injection, schedule: Q01DX009 (ip), vehicle: saline with Tween-80
[8] = dose: 25.0 mg/kg/injection, schedule: Q04DX003 (ip), vehicle: Klucel (hydroxypropylcellulose) (HPC)
[9] = dose: 50.0 mg/kg/injection, schedule: Q04DX003 (ip), vehicle: Klucel (hydroxypropylcellulose) (HPC)
[10] = dose: 200.0 mg/kg/injection, schedule: Q01DX009 (ip), vehicle: saline with Tween-80
[11] = dose: 12.5 mg/kg/injection, schedule: Q01DX009 (ip), vehicle: saline with Tween-80
[12] = dose: 25.0 mg/kg/injection, schedule: Q01DX009 (ip), vehicle: saline with Tween-80
[13] = dose: 2.5 mg/kg/injection, schedule: Q01DX009 (ip), vehicle: saline with Tween-80
[14] = dose: 5.0 mg/kg/injection, schedule: Q01DX009 (ip), vehicle: saline with Tween-80
[15] = dose: 50.0 mg/kg/injection, schedule: Q01DX009 (ip), vehicle: saline
[16] = dose: 100.0 mg/kg/injection, schedule: Q01DX009 (ip), vehicle: saline
[17] = dose: 200.0 mg/kg/injection, schedule: Q01DX009 (ip), vehicle: saline
[18] = dose: 100.0 mg/kg/injection, schedule: Q04DX003 (ip), vehicle: Klucel (hydroxypropylcellulose) (HPC)
[19] = dose: 10.0 mg/kg/injection, schedule: Q01DX009 (ip), vehicle: saline with Tween-80
[20] = dose: 200.0 mg/kg/injection, schedule: Q04DX003 (ip), vehicle: Klucel (hydroxypropylcellulose) (HPC)
[21] = dose: 400.0 mg/kg/injection, schedule: Q04DX003 (ip), vehicle: Klucel (hydroxypropylcellulose) (HPC)
[22] = dose: 6.25 mg/kg/injection, schedule: Q01DX009 (ip), vehicle: saline
[23] = dose: 12.5 mg/kg/injection, schedule: Q01DX009 (ip), vehicle: saline
[24] = dose: 50.0 mg/kg/injection, schedule: Q01DX009 (ip), vehicle: Klucel (hydroxypropylcellulose) (HPC)

Measured: T/C

COc1cccc(/C=C/C(=O)O)c1OC
inactive: dose: 50.0 mg/kg/injection, schedule: Q01DX009 (ip), vehicle: other 101 % of control | dose: 100.0 mg/kg/injection, schedule: Q01DX009 (ip), vehicle: other 107 % of control | dose: 200.0 mg/kg/injection, schedule: Q01DX009 (ip), vehicle: other 98 % of control | dose: 400.0 mg/kg/injection, schedule: Q01DX009 (ip), vehicle: other 93 % of control

CO[C@H](/C(C)=C/C=C/C(C)=C/c1coc(C)n1)[C@H](C)[C@H]1C[C@@H](O)[C@@]2(C)O[C@H]2/C=C/[C@@H](C)[C@@H]2C[C@@H](CC(=O)O2)C[C@H]2O[C@@H]2C(=O)O1
active: dose: 0.4 mg/kg/injection, schedule: Q01DX009 (ip), vehicle: Klucel (hydroxypropylcellulose) (HPC) 153 % of control | dose: 0.5 mg/kg/injection, schedule: Q01DX009 (sc), vehicle: Klucel (hydroxypropylcellulose) (HPC) 181 % of control

CCOC(=O)NNC(=O)c1ccccc1N(C)C
inactive: [1] 116 % of control | [2] 104 % of control | dose: 400.0 mg/kg/injection, schedule: Q01DX009 (ip), vehicle: Klucel (hydroxypropylcellulose) (HPC) 92 % of control

N#CC(C#N)=C/C=C/c1cccc([N+](=O)[O-])c1
inactive: dose: 3.12 mg/kg/injection, schedule: Q01DX009 (ip), vehicle: Klucel (hydroxypropylcellulose) (HPC) 110 % of control | [3] 104 % of control | [4] 115 % of control

CC(C)(SCCc1ccc([N+](=O)[O-])cc1)C(N)C(=O)O (stereo not drawn)
inactive: [3] 88 % of control

CCCCCCCCCCCCCCCCC(C(=O)O)C(O)(CC(=O)O)C(=O)O (stereo not drawn)
inactive: [4] 101 % of control | [5] 90 % of control

S=C=NCC(Br)CBr (stereo not drawn)
inactive: [3] 86 % of control | [4] 86 % of control

NC(=O)c1ccc(-c2c3ccccc3cc3c2ccc2ccccc23)cc1
inactive: [6] 101 % of control | [7] 96 % of control

CC(=O)OCC(OC(C)=O)C(OC(C)=O)C(C#N)OC(C)=O (stereo not drawn)
inactive: dose: 12.5 mg/kg/injection, schedule: Q04DX003 (ip), vehicle: Klucel (hydroxypropylcellulose) (HPC) 100 % of control | [8] 95 % of control | [9] 97 % of control

O=CC(NC(=O)N(CCF)N=O)C(O)C(O)C(O)CO (stereo not drawn)
active: dose: 25.0 mg/kg/injection, schedule: Q01DX001 (ip), vehicle: saline 171 % of control | dose: 50.0 mg/kg/injection, schedule: Q01DX001 (ip), vehicle: saline 189 % of control | dose: 100.0 mg/kg/injection, schedule: Q01DX001 (ip), vehicle: saline 231 % of control
inactive: dose: 3.12 mg/kg/injection, schedule: Q01DX001 (ip), vehicle: saline 100 % of control

CCCCNC(=O)Oc1ccc(OCc2ccccc2)cc1
inactive: [7] 107 % of control | [10] 107 % of control | dose: 400.0 mg/kg/injection, schedule: Q01DX009 (ip), vehicle: saline with Tween-80 92 % of control

O=C1c2c(O)cccc2-c2nn(CCNCCO)c3ccc(NCCNCCO)c1c23
active: dose: 2.75 mg/kg/injection, schedule: Q01DX009 (ip), vehicle: water 306 % of control | dose: 5.5 mg/kg/injection, schedule: Q01DX009 (ip), vehicle: water 306 % of control

O=C(Nc1ccccc1C(=O)O)c1cc([N+](=O)[O-])cc([N+](=O)[O-])c1
inactive: [11] 98 % of control | [12] 101 % of control | [6] 111 % of control | [7] 95 % of control | [10] 87 % of control

CC(CN=Cc1ccccc1[O-])N=Cc1ccccc1[O-].[O]=[V] (stereo not drawn)
inactive: [13] 90 % of control | [14] 90 % of control | dose: 5.0 mg/kg/injection, schedule: Q04DX003 (ip), vehicle: saline with Tween-80 97 % of control | dose: 10.0 mg/kg/injection, schedule: Q04DX003 (ip), vehicle: saline with Tween-80 92 % of control

CN=C(N)NC
inactive: [15] 95 % of control | [16] 98 % of control | [17] 104 % of control

COc1ccc(/C=C\C(=O)/C=C/c2ccc(OC)cc2)cc1
inactive: [8] 97 % of control | [9] 97 % of control | [18] 97 % of control

S=c1nc[nH]c2nc[nH]c12.[Ag]
inactive: dose: 300.0 mg/kg/injection, schedule: Q01DX009 (ip), vehicle: carboxymethylcellulose (CMC) 118 % of control

CCNc1nc(NCC)nc(OC)n1
inactive: [6] 117 % of control | dose: 66.0 mg/kg/injection, schedule: Q01DX009 (ip), vehicle: saline with Tween-80 93 % of control | [7] 95 % of control | dose: 150.0 mg/kg/injection, schedule: Q01DX009 (ip), vehicle: saline with Tween-80 93 % of control | [10] 105 % of control

CC1CC(C)(O)C2C3(C)CCCC2(COC3=O)C12CCC1(CCOC1=O)O2 (stereo not drawn)
inactive: [13] 102 % of control | [14] 94 % of control | [19] 98 % of control

COc1cc2c(cc1OC)C(OC)N(C)c1c-2ccc2cc3c(cc12)OCO3 (stereo not drawn)
inactive: [12] 122 % of control

C1=C(c2ccccc2)CCCC1
inactive: [18] 90 % of control | [20] 93 % of control | [21] 103 % of control

C[C@]12CC[C@@H]3c4ccc(Oc5nc(N6CC6)nc(N6CC6)n5)cc4CC[C@H]3[C@@H]1CCC2=O
inactive: dose: 3.13 mg/kg/injection, schedule: Q01DX009 (ip), vehicle: saline 104 % of control | [22] 113 % of control | dose: 6.25 mg/kg/injection, schedule: Q04DX003 (ip), vehicle: saline 97 % of control | [23] 104 % of control | dose: 12.5 mg/kg/injection, schedule: Q04DX003 (ip), vehicle: saline 97 % of control | dose: 25.0 mg/kg/injection, schedule: Q04DX003 (ip), vehicle: saline 102 % of control | dose: 50.0 mg/kg/injection, schedule: Q04DX003 (ip), vehicle: saline 97 % of control

CC1(C)OC2C(COC(=O)c3ccc([N+](=O)[O-])cc3)OC(NC(=O)N(CCCl)N=O)C2O1 (stereo not drawn)
active: dose: 6.25 mg/kg/injection, schedule: Q01DX009 (ip), vehicle: saline with Tween-80 158 % of control | [11] 215 % of control | [12] 204 % of control and 283 % of control | [6] 206 % of control

COc1ccc(C=Nc2ccc(Cl)cc2)cc1
inactive: [24] 104 % of control | [1] 103 % of control | [2] 106 % of control

CCCCNC(C)(C)C(SSC(c1ccc(Cl)cc1)C(C)(C)NCCCC)c1ccc(Cl)cc1 (stereo not drawn)
inactive: [22] 109 % of control | [23] 97 % of control | dose: 25.0 mg/kg/injection, schedule: Q01DX009 (ip), vehicle: saline 88 % of control

COc1ccc(C(C(N)=O)N2CCOCC2)cc1 (stereo not drawn)
inactive: [5] 92 % of control | [24] 89 % of control | [1] 87 % of control | [18] 92 % of control | [2] 86 % of control | [20] 95 % of control | [21] 95 % of control

C[CH2][Pb]([CH2]C)([CH2]C)[O]C(=O)CBr
inactive: dose: 0.75 mg/kg/injection, schedule: Q01DX009 (ip), vehicle: Klucel (hydroxypropylcellulose) (HPC) 100 % of control | dose: 1.5 mg/kg/injection, schedule: Q01DX009 (ip), vehicle: Klucel (hydroxypropylcellulose) (HPC) 112 % of control | dose: 3.0 mg/kg/injection, schedule: Q01DX009 (ip), vehicle: Klucel (hydroxypropylcellulose) (HPC) 105 % of control and 113 % of control

CN1CCN(c2ccc([N+](=O)[O-])c3no[n+]([O-])c23)CC1
inactive: [14] 111 % of control | dose: 5.0 mg/kg/injection, schedule: Q01DX011 (ip), vehicle: saline with Tween-80 110 % of control | [19] 107 % of control | dose: 10.0 mg/kg/injection, schedule: Q01DX011 (ip), vehicle: saline with Tween-80 109 % of control

Nc1ccccc1O
inactive: [15] 93 % of control and 99 % of control | [16] 101 % of control and 93 % of control | [17] 91 % of control and 94 % of control
